Test results from the NIST ThermoML archive (doi:10.1016/j.jct.2015.02.011).

Experiment: refractive index (Na D-line) (dimensionless); xn = mol fraction of the nth substance listed
Conditions: 100.7 kPa, Liquid, Standard Abbe refractometry

CCCCCCn1cc[n+](C)c1.F[P-](F)(F)(F)(F)F [1-hexyl-3-methylimidazolium hexafluorophosphate] + C1CCOC1
refractive index
Conditions	x1 = 0.1036	x1 = 0.2002	x1 = 0.2868	x1 = 0.4134	x1 = 0.5222	x1 = 0.6239	x1 = 0.6951	x1 = 0.7978	x1 = 0.8953	x1 = 1
293.15 K	1.416	1.41971	1.42081	1.42058	1.41962	1.41895	1.41874	1.41868	1.41858	1.41958
298.15 K	1.41392	1.41772	1.41878	1.41884	1.41828	1.41755	1.41759	1.41752	1.41756	1.41832
303.15 K	1.41184	1.41573	1.41707	1.4171	1.41694	1.41615	1.41644	1.41636	1.41654	1.41692
308.15 K	1.40966	1.41374	1.41536	1.41556	1.41536	1.41475	1.41509	1.41512	1.41552	1.41564
313.15 K	1.40748	1.41175	1.41365	1.41402	1.41378	1.41335	1.41374	1.41388	1.4145	1.41422
318.15 K	1.4053	1.40976	1.41194	1.41248	1.4122	1.41195	1.41239	1.41264	1.41348	1.41306
323.15 K	1.40312	1.40777	1.41023	1.41094	1.41062	1.41055	1.41104	1.4114	1.41246	1.41175

CCCCCCCC[n+]1ccn(C)c1.F[P-](F)(F)(F)(F)F [1-octyl-3-methylimidazolium hexafluorophosphate] + C1CCOC1
refractive index
Conditions	x1 = 0.0767	x1 = 0.1791	x1 = 0.2783	x1 = 0.3996	x1 = 0.5198	x1 = 0.612	x1 = 0.6957	x1 = 0.7754	x1 = 0.8991	x1 = 1
293.15 K	1.41505	1.4205	1.42326	1.42412	1.42414	1.42411	1.42421	1.42432	1.42436	1.42441
298.15 K	1.41278	1.41848	1.42126	1.42242	1.42258	1.42272	1.42284	1.42306	1.42329	1.42312
303.15 K	1.41061	1.41646	1.41956	1.42076	1.42102	1.42123	1.42161	1.42189	1.42202	1.42171
308.15 K	1.40824	1.41452	1.41786	1.4191	1.41946	1.41974	1.42018	1.42042	1.42085	1.42029
313.15 K	1.40587	1.41284	1.41616	1.41744	1.4179	1.41825	1.41865	1.41915	1.41958	1.41888
318.15 K	1.4035	1.41116	1.41446	1.41578	1.41634	1.41676	1.41712	1.41788	1.41831	1.4175
323.15 K	1.40113	1.40948	1.41276	1.41412	1.41478	1.41527	1.41559	1.41661	1.41704	1.41601
